Reference: BindingDB's records for doi:10.1021/jm100342z (Vernalis R&D, 2010)

Experiment: Binding affinity to Hsp70 nucleotide binding domain in human BT474 cells

`N#Cc1ccc(COC[C@H]2O[C@@H](n3c(NCc4ccc(Cl)c(Cl)c4)nc4c(N)ncnc43)[C@H](O)[C@@H]2O)cc1` [adenosine-derived inhibitor (Grp78), 13] gave an IC50 of 10.4 µM.
